The results in this text go back to patent US20190314334A1, “COMPOUNDS FOR THE TREATMENT OF AUTOIMMUNE DISEASES” (QUIMATRYX, S.L., priority 2016, published 2019).

For test [1], the system named is experimental autoimmune encephalomyelitis induced by myelin oligodendrocyte glycoprotein (MOG). Put plainly: MOG-induced experimental autoimmune encephalomyelitis (EAE), paralysis scores. It is filed as in vivo, mice. Conditions: variant of Example 2. How it is done:
A variant of the animal model of Example 2 was tested. In particular, experimental autoimmune encephalomyelitis was induced by subcutaneous injection of myelin oligodendrocyte glycoprotein (MOG) instead of PLP.

For the next test, the system named is PLP-induced EAE. Put plainly: PLP-induced experimental autoimmune encephalomyelitis (EAE), clinical grading. It is filed as in vivo, Female SJL mice.
Test [2] has as its system Concanavalin A (ConA)-induced hepatitis. The test is described as follows: Concanavalin A (ConA)-induced hepatitis model of autoimmune hepatitis, plasma transaminase (GPT). Format: in vivo, Male Balb/C mice. Conditions: blood 8 hours after ConA, vehicle 1338 U/L. How it is done:
Concanavalin A (ConA)-induced hepatitis is a cell-mediated immunoinflammatory condition that can be induced in mice by a single intravenous injection of ConA. It is typically employed as a model for autoimmune hepatitis. The disease is characterized by a marked increase in the plasma levels of transaminase (GPT) shortly (8-24 hours) after ConA challenge and simultaneous infiltration of the liver with neutrophils, macrophages and T cells followed by apoptosis and necrosis of the hepatocytes. The aim of the present example was to evaluate the effects of a compound of formula (I) (QTX125) on histological and clinical parameters in the model of autoimmune hepatitis induced by ConA. Male Balb/C mice 7-8 weeks old (Envigo, San Pietro al Natisone, Udine, Italy) were kept under standard laboratory conditions (non-specific pathogen free) with free access to food and water and were allowed to adapt at least one week to their environment before commencing the study. ConA (Sigma Chemical, St. Louis, Mo.), was dissolved in sterile phosphate-buffered saline (PBS) and was injected into the tail veins of the animals at the dose of 20 mg/Kg. Three groups of 10 mice were treated at −24 and −1 hours before ConA injection as described in the table below: [table] […] The depth of colour is itself determined by the concentration of analyte in the sample.

For `O=C(NO)c1ccc(CNC(=O)c2[nH]c(-c3ccc(O)cc3)cc2-c2ccoc2)cc1` [QTX125], the “paralysis scores (EAE clinical grading)” value in test [1] is “reduced paralysis scores”. In addition, in the test with PLP-induced EAE (60 mg/Kg i.p. daily for 35 consecutive days, day 7 to day 42 post immunization), the “EAE clinical grading (mouse condition) with respect to vehicle” value is listed as “substantial improvement of mouse condition”. The “EAE clinical grading (mouse condition) with respect to dexamethasone” value in the test on PLP-induced EAE (60 mg/Kg i.p. daily vs dexamethasone 0.3 mg/Kg, greater part of the treatment, particularly at the end) is recorded as “even ameliorated with respect to dexamethasone”. For the same compound, the “transaminase (GPT) plasma level (light emission)” value was found to be 606 U/L in test [2] (25 mg/Kg i.p. 24 and 1 hour before ConA (20 mg/Kg i.v.)); 543 U/L in test [2] (50 mg/Kg i.p. 24 and 1 hour before ConA (20 mg/Kg i.v.)).
